Test results published in patent EP1712550A2, “Substituted triazole diamine derivatives as kinase inhibitors” (priority 2000, dated 2002).

Key:
A375 malignant melanoma = test: Inhibition of Cell Proliferation, 14C-thymidine incorporation, A375; assay type: cell-based; conditions: Homo sapiens, A-375; Cell Line A375
Procedure: (§1) The ability of a test compound to inhibit the proliferation of cell growth was determined by measuring incorporation of ^14C-labelled thymidine into newly synthesized DNA within the cells. This method was used on cell lines derived from carcinomas originating from several tissues such as HeLa cervical adenocarcinoma (American Type Culture Collection (ATCC), Virginia, Cat. #CCL-2), A375 malignant melanoma (ATCC CRL-1619), SK-OV-3 ovarian adenocarcinoma (ATCC HTB-77) HCT-116 colon carcinoma (CCL-247), PC-3 prostate adenocarcinoma (ATCC CRL-1435), and MDA-MB-231 (Xenogen Corp.) In this way the effect of a compound on cell growth of cells with many different phenotypes can be determined. Cells were trypsinized and counted and 3000-8000 cells were added to each well of a 96-well CytoStar tissue culture treated scintillating microplate (Amersham #RPNQ0160) in complete medium in a volume of 100 µl. Cells were incubated for 24 hours in complete medium at 37°C in an atmosphere containing 5% CO2. Next, 1 µl of test compound in 100% DMSO was added to the wells of the plate. DMSO only was added to control wells. Cells were incubated for 24 more hours in complete medium at 37°C in an atmosphere containing 5% CO2. Methyl^14C-thymidine 56 mCi/mmol (NEN #NEC568 or Amersham #CFA532) was diluted in complete medium and 0.2 uCi/well was added to each well of the CytoStar plate in a volume of 20 ul. The plate was incubated for 24 hours at 37°C plus 5% CO2 in drug plus ^14C-thymidine. The contents of the plate were discarded into a ^14C radioactive waste container by inverting the plate and the plate was washed twice with 200 µl PBS. 200 µl of PBS is added to each well. The top of the plate was sealed with a transparent plate sealer and a white plate backing sealer (Packard #6005199) was applied to the bottom of the plate. The degree of methyl ^14C-thymidine incorporation was quantified on a Packard Top Count.

[1] = test system: HeLa cervical adenocarcinoma; test: Inhibition of Cell Proliferation, 14C-thymidine incorporation, HeLa; assay type: cell-based; conditions: Homo sapiens; Cell Line HeLa
Procedure: as §1

HCT-116 colon carcinoma = test: Inhibition of Cell Proliferation, 14C-thymidine incorporation, HCT-116; assay type: cell-based; conditions: Homo sapiens; Cell Line HCT-116
Procedure: as §1

[2] = test system: PC-3 prostate adenocarcinoma; test: Inhibition of Cell Proliferation, 14C-thymidine incorporation, PC-3; assay type: cell-based; conditions: Cell Line PC-3
Procedure: as §1

[3] = biological target: T1, VEGF-R (vascular endothelial growth factor receptor-2) (Rattus norvegicus, UniProt O08775); test: VEGF-R Screening Assay; assay type: biochemical; conditions: read-out: Kinase Assay (IC50 uM) VEGF-R
T1 construct: 6xHis (polyhistidine) (N)
Procedure: (§2) 70 µL of the kinase reaction mixture was dispensed into the well of a streptavidin coated FlashPlate™ (Cat. # SMP103, NEN, Boston, MA). Then 1 µL of test compound stock in 100% DMSO was added to the wells resulting in a final concentration of 1% DMSO in the reaction with a 100 µL final reaction volume. Next, soluble rat tyrosine kinase containing an N-terminal 6XHIS tag was diluted in 50 mM Tris-HCl pH=8.0, 0.1% BSA at a concentration of 5 ng per µL and 30 µL (150 ng enzyme per test well) was added to each well to initiate the reaction. The reaction was incubated for one hour at 30°C. At the end of the 1-hour incubation, the reaction was terminated by aspirating the reaction mixture from the plate and washing the wells twice with PBS containing 100 mM EDTA. The PLC1 biotinylated peptide substrate became immobilized on the Flashplate™ and the incorporation of ^33P-γ-ATP was measured by reading the plate on a scintillation counter. Inhibition of the enzymatic activity of the VEGF-R was measured by observing a reduced amount of ^33P-γ-ATP incorporated into the immobilized peptide. […]

[4] = biological target: T2, EGFR (epidermal growth factor receptor) (Homo sapiens, UniProt P00533); test: Kinase Selectivity Assay EGF-R; assay type: biochemical; conditions: read-out: Kinase Assay (IC50 uM) EGF-R
T2 construct: is purified from human A431 cell membranes (Sigma, St. Louis, MO, Cat.# E3641); purchased Sigma, St. Louis, MO E3641; host or cells: human A431 cell membranes (endogenous protein)

[5] = biological target: T3, HER2 (human epidermal growth factor receptor-2) (Homo sapiens, UniProt P04626); test: Kinase Selectivity Assay HER2; assay type: biochemical; conditions: read-out: Kinase Assay (IC50 uM) HER2 Kinase
T3 construct: begins at amino acid 676 followed by the remainder of the HER2 cytoplasmic domain; polyhistidine (N)

CDK1:Cyclin-B = biological target: T4, CDK1:Cyclin-B (Homo sapiens, UniProt P06493); test: CDK1 Screening Assay; assay type: biochemical; conditions: read-out: Kinase Assay (IC50 uM) CDK1
T4 construct: purchased New England Biolabs, Beverly, MA 6020; host or cells: insect cells
Procedure: as §2, with “100 µl” for “100 µL”, “Next, CDK1:Cyclin-B protein” for “Next, soluble rat tyrosine kinase containing an N-terminal 6XHIS tag”, “of 1” for “of 5”, “30 µl (30ng” for “30 µL (150 ng”, “The histone-H1” for “The PLC1”, “of CDK1” for “of the VEGF-R”

PKC (protein kinase-C) = test: Kinase Selectivity Assay PKC; assay type: biochemical, human
Insulin Receptor Kinase = Insulin Receptor Kinase (Homo sapiens, UniProt P06213); test: Kinase Selectivity Assay Insulin Receptor Kinase; assay type: biochemical; conditions: read-out: Kinase Assay (IC50 uM) Insulin R Kinase
[6] = biological target: T5, CDK2 in complex with cyclin A (Homo sapiens, UniProt P24941); test: Kinase Selectivity Assay CDK2; assay type: biochemical
T5 construct: purchased Upstate Biotech, Lake Placid, NY

T3 sequence (P04626 676-1255 limits assumed): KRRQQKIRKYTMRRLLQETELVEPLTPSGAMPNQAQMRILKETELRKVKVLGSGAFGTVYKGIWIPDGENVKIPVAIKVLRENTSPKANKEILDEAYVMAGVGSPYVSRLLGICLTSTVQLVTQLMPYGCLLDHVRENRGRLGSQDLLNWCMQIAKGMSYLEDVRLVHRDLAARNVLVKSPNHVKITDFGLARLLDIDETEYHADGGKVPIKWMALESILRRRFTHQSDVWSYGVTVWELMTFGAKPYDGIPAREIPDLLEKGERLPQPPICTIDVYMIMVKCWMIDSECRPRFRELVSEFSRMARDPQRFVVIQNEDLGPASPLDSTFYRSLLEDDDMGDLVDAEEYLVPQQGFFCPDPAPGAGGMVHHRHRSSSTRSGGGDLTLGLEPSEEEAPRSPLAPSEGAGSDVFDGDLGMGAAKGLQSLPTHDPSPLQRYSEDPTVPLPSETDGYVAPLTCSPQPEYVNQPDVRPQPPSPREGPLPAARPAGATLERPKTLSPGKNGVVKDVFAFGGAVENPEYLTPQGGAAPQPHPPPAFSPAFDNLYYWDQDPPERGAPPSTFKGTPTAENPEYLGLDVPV
T2 sequence (P00533 25-1210): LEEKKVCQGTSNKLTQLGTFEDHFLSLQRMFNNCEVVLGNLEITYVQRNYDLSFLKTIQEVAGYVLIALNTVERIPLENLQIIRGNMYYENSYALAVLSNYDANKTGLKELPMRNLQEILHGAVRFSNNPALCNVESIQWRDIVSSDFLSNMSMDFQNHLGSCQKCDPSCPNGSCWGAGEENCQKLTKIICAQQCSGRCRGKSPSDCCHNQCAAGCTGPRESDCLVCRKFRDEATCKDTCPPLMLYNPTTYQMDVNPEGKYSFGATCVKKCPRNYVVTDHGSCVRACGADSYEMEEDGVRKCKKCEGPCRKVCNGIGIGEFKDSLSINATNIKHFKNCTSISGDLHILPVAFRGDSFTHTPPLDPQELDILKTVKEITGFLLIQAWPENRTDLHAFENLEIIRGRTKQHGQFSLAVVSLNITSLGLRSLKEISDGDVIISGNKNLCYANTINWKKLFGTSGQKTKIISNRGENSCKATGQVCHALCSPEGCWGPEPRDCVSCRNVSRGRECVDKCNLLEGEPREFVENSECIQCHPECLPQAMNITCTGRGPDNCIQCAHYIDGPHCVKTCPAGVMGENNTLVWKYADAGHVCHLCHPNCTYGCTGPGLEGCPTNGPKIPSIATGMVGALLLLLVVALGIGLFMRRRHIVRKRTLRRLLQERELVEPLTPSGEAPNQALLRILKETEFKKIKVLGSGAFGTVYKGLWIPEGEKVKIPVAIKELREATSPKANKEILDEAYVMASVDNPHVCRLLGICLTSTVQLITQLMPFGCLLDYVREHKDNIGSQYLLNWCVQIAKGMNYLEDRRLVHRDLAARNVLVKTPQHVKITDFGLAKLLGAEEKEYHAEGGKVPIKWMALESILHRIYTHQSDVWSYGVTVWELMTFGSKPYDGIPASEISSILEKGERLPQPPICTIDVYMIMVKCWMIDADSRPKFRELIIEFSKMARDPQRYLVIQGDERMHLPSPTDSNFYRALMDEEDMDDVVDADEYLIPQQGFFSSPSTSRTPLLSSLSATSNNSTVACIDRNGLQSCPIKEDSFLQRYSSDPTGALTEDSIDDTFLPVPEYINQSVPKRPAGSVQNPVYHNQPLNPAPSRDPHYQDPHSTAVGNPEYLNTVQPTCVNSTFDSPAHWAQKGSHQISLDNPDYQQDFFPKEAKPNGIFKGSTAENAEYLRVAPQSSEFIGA
T1 sequence (O08775 786-1343): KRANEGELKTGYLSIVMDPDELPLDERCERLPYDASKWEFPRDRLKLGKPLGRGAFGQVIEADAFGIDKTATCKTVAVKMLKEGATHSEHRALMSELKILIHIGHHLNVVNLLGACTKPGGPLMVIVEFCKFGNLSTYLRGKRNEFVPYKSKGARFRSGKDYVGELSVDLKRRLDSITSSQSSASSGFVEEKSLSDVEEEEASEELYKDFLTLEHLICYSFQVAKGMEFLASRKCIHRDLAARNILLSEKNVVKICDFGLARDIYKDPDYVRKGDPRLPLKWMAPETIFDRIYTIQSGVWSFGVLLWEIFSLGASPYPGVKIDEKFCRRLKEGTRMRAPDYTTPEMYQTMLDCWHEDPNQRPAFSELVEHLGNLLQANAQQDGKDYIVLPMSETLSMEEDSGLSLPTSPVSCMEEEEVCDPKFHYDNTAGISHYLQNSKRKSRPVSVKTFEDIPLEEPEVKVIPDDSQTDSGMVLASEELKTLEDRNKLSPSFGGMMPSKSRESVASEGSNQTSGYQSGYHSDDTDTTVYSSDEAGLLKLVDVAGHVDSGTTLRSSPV
T4 sequence (P06493 whole entry): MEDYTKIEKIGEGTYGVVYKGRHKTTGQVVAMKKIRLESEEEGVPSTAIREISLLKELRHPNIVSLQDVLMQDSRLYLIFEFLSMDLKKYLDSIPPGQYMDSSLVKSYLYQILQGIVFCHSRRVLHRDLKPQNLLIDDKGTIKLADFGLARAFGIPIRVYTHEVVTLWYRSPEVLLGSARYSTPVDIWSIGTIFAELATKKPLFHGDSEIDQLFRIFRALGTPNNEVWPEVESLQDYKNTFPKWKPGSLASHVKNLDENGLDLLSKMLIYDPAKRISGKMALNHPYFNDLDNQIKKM
T4 sequence (P14635 whole entry partner): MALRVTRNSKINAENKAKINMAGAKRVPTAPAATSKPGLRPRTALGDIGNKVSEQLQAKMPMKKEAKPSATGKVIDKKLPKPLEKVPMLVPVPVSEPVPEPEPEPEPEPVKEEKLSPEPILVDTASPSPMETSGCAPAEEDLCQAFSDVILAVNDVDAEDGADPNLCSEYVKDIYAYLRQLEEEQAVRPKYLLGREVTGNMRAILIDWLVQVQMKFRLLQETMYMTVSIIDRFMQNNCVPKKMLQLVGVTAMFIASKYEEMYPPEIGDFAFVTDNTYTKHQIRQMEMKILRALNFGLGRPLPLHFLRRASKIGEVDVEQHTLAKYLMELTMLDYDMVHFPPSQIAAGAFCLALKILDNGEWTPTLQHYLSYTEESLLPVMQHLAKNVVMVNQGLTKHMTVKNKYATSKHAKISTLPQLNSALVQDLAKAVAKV
Insulin Receptor Kinase, sequence (P06213 980-1352): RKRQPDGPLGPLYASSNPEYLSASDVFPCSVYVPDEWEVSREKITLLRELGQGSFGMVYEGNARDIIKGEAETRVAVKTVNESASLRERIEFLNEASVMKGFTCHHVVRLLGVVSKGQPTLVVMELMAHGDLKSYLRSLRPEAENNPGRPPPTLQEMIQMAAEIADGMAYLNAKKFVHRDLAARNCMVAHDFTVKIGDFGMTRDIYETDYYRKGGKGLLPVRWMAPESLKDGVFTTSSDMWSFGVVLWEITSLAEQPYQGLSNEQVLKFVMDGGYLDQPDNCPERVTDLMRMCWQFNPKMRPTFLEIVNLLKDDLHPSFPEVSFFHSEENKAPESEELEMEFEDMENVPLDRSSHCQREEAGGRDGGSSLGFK

| SMILES | IC50 [3] [µM] | IC50 [4] [µM] | IC50 [5] [µM] | IC50 (CDK1:Cyclin-B) [µM] | also measured |
| --- | --- | --- | --- | --- | --- |
| Cc1ccsc1C(=O)n1nc(Nc2ccc(S(N)(=O)=O)cc2)nc1N [Cpd 15, 4-[[5-amino-1-[(3-methyl-2-thienyl)carbonyl]-1H-1,2,4-triazol-3-yl]amino]-benzenesulfonamide] | – | – | – | – | IC50 (A375 malignant melanoma): 247 nM; IC50 [1]: 91 nM; IC50 (HCT-116 colon carcinoma): 127 nM; IC50 [2]: 107 nM |
| Nc1nc(Nc2ccc(S(N)(=O)=O)cc2)nn1C(=S)Nc1c(F)cccc1F [Cpd 66, 5-amino-3-[[4-(aminosulfonyl)phenyl]amino]-N-(2,6-difluorophenyl)-1H-1,2,4-triazole-1-carbothioamide] | – | – | – | – | IC50 (A375 malignant melanoma): 92 nM; IC50 [1]: 35 nM; IC50 (HCT-116 colon carcinoma): 20 nM |
| Cc1ccc(F)c(C(=O)n2nc(Nc3ccc(S(N)(=O)=O)cc3)nc2N)c1Cl [Cpd 69, 4-[[5-amino-1-(2-chloro-6-fluoro-3-methylbenzoyl)-1H-1,2,4-triazol-3-yl]amino]-benzenesulfonamide] | 0.685 | > 100 | 0.139 | – | IC50 [2]: 8 nM |
| CNS(=O)(=O)c1ccc(Nc2nc(N)n(C(=O)c3c(F)ccc(C)c3F)n2)cc1 [Cpd 81, 4-[[5-amino-1-(2,6-difluoro-3-methylbenzoyl)-1H-1,2,4-triazol-3-yl]amino]-N-methyl-benzenesulfonamide] | 0.482 | > 100 | 1.7 | 0.018 | – |
| Cc1ccsc1C(=O)n1nc(Nc2ccc(-n3cncn3)cc2)nc1N [Cpd 99, 1-[(3-methyl-2-thienyl)carbonyl]-N^3-[4-(1H-1,2,4-triazol-1-yl)phenyl]-1H-1,2,4-triazole-3,5-diamine] | – | > 100 | 0.095 | 0.366 | IC50 (PKC (protein kinase-C)): > 100 µM |
| Cc1ccc(F)c(C(=O)n2nc(Nc3ccc(S(=O)(=O)NCCN(C)C)cc3)nc2N)c1F [Cpd 105, 4-[[5-amino-1-(2,6-difluoro-3-methylbenzoyl)-1H-1,2,4-triazol-3-yl]amino]-N-[2-(dimethylamino)ethyl]-benzenesulfonamide] | 0.276 | 9.6 | 0.845 | 0.046 | – |
| Cc1cc(C)c(C(=O)n2nc(Nc3ccc(S(=O)(=O)NCCN(C)C)cc3)nc2N)s1 [Cpd 107, 4-[[5-amino-1-[(3,5-dimethyl-2-thienyl)carbonyl]-1H-1,2,4-triazol-3-yl]amino]-N-[2-(dimethylamino)ethyl]-benzenesulfonamide] | 0.032 | 0.936 | 0.03 | 0.014 | – |
| Cc1cc(C)c(C(=O)n2nc(Nc3ccc(NS(C)(=O)=O)cc3)nc2N)s1 [Cpd 108, N-[4-[[5-amino-1-[(3,5-dimethyl-2-thienyl)carbonyl]-1H-1,2,4-triazol-3-yl]amino]phenyl]-methanesulfonamide] | – | > 100 | – | – | IC50 (A375 malignant melanoma): 259 nM; IC50 [1]: 221 nM; IC50 (Insulin Receptor Kinase): 0.81 µM; IC50 (HCT-116 colon carcinoma): 76 nM |
| Cc1ccsc1C(=O)n1nc(Nc2ccc(NS(C)(=O)=O)cc2)nc1N [Cpd 109, N-[4-[[5-amino-1-[(3-methyl-2-thienyl)carbonyl]-1H-1,2,4-triazol-3-yl]amino]phenyl]-methanesulfonamide] | 0.025 | > 100 | 0.17 | 0.147 | – |
| Cc1ccc(F)c(C(=O)n2nc(Nc3ccc(N4CCNC4=O)cc3)nc2N)c1F [Cpd 114, 1-[4-[[5-amino-1-(2,6-difluoro-3-methylbenzoyl)-1H 1,2,4-triazol-3-yl]amino]phenyl]-2-imidazolidinone] | 0.313 | > 100 | 1.39 | 0.228 | – |
| Nc1nc(Nc2ccc(N3CCNC3=O)cc2)nn1C(=O)c1c(F)cccc1F [Cpd 115, 1-[4-[[5-axnino-1-(2,6-difluorobenzoyl)-1H-1,2,4-triazol-3-yl]amino]phenyl]-2-imidazolidinone] | 0.467 | > 10 | 1.44 | 0.313 | – |
| Nc1nc(Nc2ccc(N3CCCS3(=O)=O)cc2)nn1C(=O)c1c(F)cccc1F [Cpd 117, 1-(2,6-difluorobenzoyl)-N^3-[4-(1,1-dioxido-2-isothiazolidinyl)phenyl]-1H-1,2,4-triazole-3,5-diamine] | – | > 100 | 5.44 | 0.035 | – |
| CCc1ccc(C(=O)n2nc(Nc3ccc(S(=O)(=O)Nc4ccccn4)cc3)nc2N)s1 [Cpd 119, 4-[[5-amino-1-[(5-ethyl-2-thienyl)carbonyl]-1H-1,2,4-triazol-3-yl]amino]-N-(2-pyridinyl)-benzenesulfonamide] | 0.057 | – | – | 0.067 | IC50 (A375 malignant melanoma): 199 nM; IC50 [1]: 146 nM; IC50 (PKC (protein kinase-C)): > 100 µM; IC50 (HCT-116 colon carcinoma): 117 nM |
| Cc1ccsc1C(=O)n1nc(Nc2ccc(S(=O)(=O)Nc3ccccn3)cc2)nc1N [Cpd 121, 4-[[5-amino-1-[(3-methyl-2-thienyl)carbonyl]-1H-1,2,4-triazol-3-yl]amino]-N-(2-pyridinyl)-benzenesulfonamide] | 0.027 | > 10 | 0.717 | 0.099 | – |
| Nc1nc(Nc2cccc(Cl)c2)n(C(=O)c2c(F)cccc2F)n1 [Cpd 126, N^5-(3-chlorophenyl)-1-(2,6-difluorobenzoyl)-1H-1,2,4-triazole-3,5-diamine] | – | – | – | – | IC50 [6]: > 100 µM |
| Nc1nc(Nc2cccc(Cl)c2)n(C(=O)c2ccccc2)n1 [Cpd 127, 1-benzoyl-N^5-(3-chlorophenyl)-1H-1,2,4-triazole-3,5-diamine] | – | – | – | – | IC50 [6]: > 100 µM |
| Nc1nc(Nc2ccc(S(N)(=O)=O)cc2)n(C(=S)Nc2c(F)cccc2F)n1 [Cpd 128, 3-amino-5-[[4-(aminosulfonyl)phenyl]amino]-N-(2,6-difluorophenyl)-1H-1,2,4-triazole-1-carbothioamide] | – | > 100 | 0.11 | – | IC50 (A375 malignant melanoma): 968 nM; IC50 [1]: 128 nM; IC50 (HCT-116 colon carcinoma): 910 nM |
